The target of data set [1] is human norepinephrine transporter (Homo sapiens, UniProt P23975). The experiment in a line: Human norepinephrine (hNET) receptor binding, [125I]-RTI-55. Particulars: membranes of HEK-293 cells transfected with human norepinephrine transporter cDNA; 50 pM [125I]-RTI-55; IC50 converted by Cheng-Prusoff. The procedure, abridged:
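Membranes from HEK-293 cells expressing human NET, incubated 90 min at room temperature with 50 pM [125I]-RTI-55 and compound (10^−5 to 10^−12 M) in Krebs-HEPES pH 7.4. Nonspecific binding defined with 10 μM desipramine; filter-bound counts gave IC50, converted to Ki by Cheng-Prusoff.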

Data set [2] deals with human serotonin transporter (Homo sapiens, UniProt P31645). The experiment in a line: Human serotonin (hSERT) receptor binding, [125I]-RTI-55. The conditions noted are these: membranes of HEK-293 cells transfected with human serotonin transporter cDNA, IC50 converted by Cheng-Prusoff. The procedure, abridged: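 Membranes from HEK-293 cells expressing human SERT were incubated 90 min at room temperature in Krebs-HEPES buffer pH 7.4 with […] [125I]-RTI-55 and compound (10^−5 to 10^−12 M), in duplicate. Nonspecific binding defined with 10 μM citalopram; IC50 converted to Ki by Cheng-Prusoff.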
Sequence of human serotonin transporter (P31645 whole entry): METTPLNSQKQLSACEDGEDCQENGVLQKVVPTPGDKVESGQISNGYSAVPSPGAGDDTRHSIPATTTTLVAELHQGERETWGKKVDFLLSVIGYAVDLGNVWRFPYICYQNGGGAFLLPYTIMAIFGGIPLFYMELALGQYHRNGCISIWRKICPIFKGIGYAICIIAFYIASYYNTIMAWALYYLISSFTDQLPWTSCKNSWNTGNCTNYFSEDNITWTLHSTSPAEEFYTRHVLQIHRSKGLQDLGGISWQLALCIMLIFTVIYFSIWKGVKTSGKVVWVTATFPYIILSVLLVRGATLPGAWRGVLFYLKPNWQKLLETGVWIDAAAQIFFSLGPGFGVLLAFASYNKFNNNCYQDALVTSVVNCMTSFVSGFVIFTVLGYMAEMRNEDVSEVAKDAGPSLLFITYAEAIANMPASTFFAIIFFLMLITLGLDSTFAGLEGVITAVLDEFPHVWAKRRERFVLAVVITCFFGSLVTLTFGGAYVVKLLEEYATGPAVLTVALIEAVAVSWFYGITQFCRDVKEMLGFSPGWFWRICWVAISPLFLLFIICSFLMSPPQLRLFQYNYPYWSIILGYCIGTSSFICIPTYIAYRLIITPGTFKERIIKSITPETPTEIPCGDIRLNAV

Where a name gives a salt, the structure may show the parent alone.

For orientation: Ki means a measure of affinity in units of concentration, obtained from inhibition or displacement. A higher Ki goes with lower affinity. Broadly, the melting point is the temperature of the solid-liquid transition.

Sequence of human norepinephrine transporter (P23975 whole entry): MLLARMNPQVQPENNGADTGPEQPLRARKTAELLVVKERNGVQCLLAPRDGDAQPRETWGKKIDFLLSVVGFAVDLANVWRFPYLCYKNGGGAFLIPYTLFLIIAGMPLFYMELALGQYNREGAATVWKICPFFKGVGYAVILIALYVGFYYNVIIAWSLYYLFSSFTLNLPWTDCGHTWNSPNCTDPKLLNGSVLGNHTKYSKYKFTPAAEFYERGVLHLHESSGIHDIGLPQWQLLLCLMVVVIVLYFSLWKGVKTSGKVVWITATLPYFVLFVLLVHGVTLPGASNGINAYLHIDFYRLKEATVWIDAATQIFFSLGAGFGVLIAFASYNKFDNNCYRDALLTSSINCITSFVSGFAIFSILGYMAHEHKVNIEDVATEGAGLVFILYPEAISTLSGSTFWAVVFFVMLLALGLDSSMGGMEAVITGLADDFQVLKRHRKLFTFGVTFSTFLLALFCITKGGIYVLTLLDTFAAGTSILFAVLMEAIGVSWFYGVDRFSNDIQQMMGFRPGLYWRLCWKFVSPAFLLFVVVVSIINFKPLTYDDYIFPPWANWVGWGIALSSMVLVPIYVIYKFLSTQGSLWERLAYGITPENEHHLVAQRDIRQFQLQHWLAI

`O=C(O)/C=C/C(=O)O.c1ccc(Oc2ncccc2OC[C@@H]2CCCNC2)cc1` [Example 94, (R)-2-phenoxy-3-(piperidin-3-ylmethoxy)-pyridine fumaric acid]: the melting point was 141 to 143 °C (dec.). Further, the Ki in data set [1] is 410 nM. The affinity in data set [2], expressed as Ki, was 4700 nM.

For `Fc1ccc(Oc2ncccc2OC[C@H]2CCCNC2)c(Cl)c1.O=C(O)/C=C/C(=O)O` [Example 71, (S)-2-(2-chloro-4-fluoro-phenoxy)-3-(piperidin-3-ylmethoxy)-pyridine fumaric acid], the melting point is 189 to 190 °C (dec.). Besides, the affinity in data set [1] corresponds to a Ki of 2 nM. Besides, affinity in data set [2] was put at a Ki of 6600 nM.

Take `Cc1ccc(Oc2ncccc2OC[C@H]2CCCNC2)cc1C.O=C(O)/C=C/C(=O)O` [Example 65, (S)-2-(3,4-dimethyl-phenoxy)-3-(piperidin-3-ylmethoxy)-pyridine fumaric acid]: the melting point was 169 to 170 °C. In data set [1], the Ki was 7 nM. For the same compound, the affinity in data set [2] corresponds to a Ki of 2200 nM.

Take `Fc1ccc(Oc2ncccc2OC[C@H]2CCCNC2)cc1Cl.O=C(O)/C=C/C(=O)O` [Example 66, (S)-2-(3-chloro-4-fluoro-phenoxy)-3-(piperidin-3-ylmethoxy)-pyridine fumaric acid]: the melting point was 143 to 144 °C (dec.). The Ki in data set [1] is 20 nM. In data set [2], this compound gave an inhibition constant Ki of 2900 nM.

Compound `Fc1cc(Oc2ncccc2OC[C@H]2CCCNC2)ccc1Cl.O=C(O)/C=C/C(=O)O` [Example 69, (S)-2-(4-chloro-3-fluoro-phenoxy)-3-(piperidin-3-ylmethoxy)-pyridine fumaric acid] had a melting point of 150 to 151 °C. The same compound gave a Ki in data set [1] of 4 nM. This compound came in with an inhibition constant (Ki) in data set [2] of 5500 nM.

Compound `Cc1cccc(Oc2ncccc2OC[C@H]2CCCNC2)c1.O=C(O)/C=C/C(=O)O` [Example 68, (S)-2-(3-methyl-phenoxy)-3-(piperidin-3-ylmethoxy)-pyridine fumaric acid] had a melting point of 130 to 132 °C. Moreover, the inhibition constant Ki in data set [1] came to 6 nM. The affinity in data set [2] corresponds to a Ki of 5800 nM.

In turn, `CCOc1ncccc1OC(c1ccccc1)C1CCCNC1` (single isomer, unassigned; stereoisomer a) (as salt: fumaric acid salt) [Example 90, 2-ethoxy-3-[((R or S)-phenyl)-((S)-piperidin-3-yl)-methoxy]-pyridine fumaric acid, stereoisomer A] returned a melting point of 159 to 161 °C.

In turn, `Fc1ccc(OC[C@H]2CCCNC2)c(Oc2ccccc2)c1.O=C(O)/C=C/C(=O)O` [Example 46, (S)-3-(4-fluoro-2-phenoxy-phenoxymethyl)-piperidine fumaric acid] came in with a melting point of 128 to 130 °C. In data set [1], this compound gave a Ki of 2 nM. The same compound yielded a Ki in data set [2] of 320 nM.

Turning to `CC(C)c1ccccc1Oc1ncccc1OC[C@H]1CCCNC1.O=C(O)/C=C/C(=O)O` [Example 75, (S)-2-(2-isopropyl-phenoxy)-3-(piperidin-3-ylmethoxy)-pyridine fumaric acid], the melting point is 112 to 114 °C (dec.). The compound also registered a Ki in data set [1] of 760 nM. For the same compound, the inhibition constant (Ki) in data set [2] was above 10000 nM.

As for `CCOc1ccccc1OC(c1ccccc1)[C@H]1CCCNC1` (mixture of isomers) (as salt: fumaric acid salt) (hydrate or solvate) [Example 106, (S)-3-[(2-ethoxy-phenoxy)-(R,S)-phenyl-methyl]-piperidine fumaric acid], the melting point is 82 to 88 °C (dec.).

For the compound `CCOc1ncccc1OC(c1ccccc1)C1CCCNC1` (single isomer, unassigned; stereoisomer b) (as salt: fumaric acid salt) [Example 91, 2-ethoxy-3-[((R or S)-phenyl)-((S)-piperidin-3-yl)-methoxy]-pyridine fumaric acid, stereoisomer B], the melting point was 58 to 68 °C (dec.).

Compound `Fc1ccc(Oc2ncccc2OC(c2ccccc2)C2CCCNC2)cc1` (single isomer, unassigned; stereoisomer a) (as salt: fumaric acid salt) (hydrate or solvate) [Example 88, 2-(4-fluoro-phenoxy)-3-[((R or S)-phenyl)-((S)-piperidin-3-yl)-methoxy]-pyridine fumaric acid, stereoisomer A] showed a melting point of 191 to 192 °C.

For `Fc1ccc(Oc2ncccc2OC(c2ccccc2)C2CCCNC2)cc1` (single isomer, unassigned; stereoisomer b) (as salt: fumaric acid salt) [Example 89, 2-(4-fluoro-phenoxy)-3-[((R or S)-phenyl)-((S)-piperidin-3-yl)-methoxy]-pyridine fumaric acid, stereoisomer B], the melting point fell in the range of 150 to 152 °C.

On to `C[C@H](Oc1ccccc1OCc1ccccc1)[C@H]1CCCNC1` [Example 108, (S)-3-[(S)-1-(2-benzyloxy-phenoxy)-ethyl]-piperidine oxalic acid], for which the inhibitory constant (Ki) in data set [1] was determined as 3 nM; in data set [2] it was 730 nM.

Turning to `Fc1ccc(Oc2cccc(F)c2OC[C@H]2CCCNC2)cc1` [Example 96, (S)-3-[2-fluoro-6-(4-fluoro-phenoxy)-phenoxymethyl]-piperidine fumaric acid], the results for the Ki in data set [1] and in data set [2] were 1 nM and 530 nM, respectively.

On to `COc1cccc(F)c1O[C@@H](c1ccccn1)[C@H]1CCCNC1` [Example 115, 2-[{(R)-2-fluoro-6-methoxy-phenoxy}-(S)-piperidin-3-yl-methyl]-pyridine fumaric acid], for which the Ki was 4 nM in data set [1] and 5020 nM in data set [2].

The compound `Fc1ccc(Oc2ncccc2OC[C@@H]2CCCNC2)cc1.O=C(O)/C=C/C(=O)O` [Example 56, (R)-2-(4-fluoro-phenoxy)-3-(piperidin-3-ylmethoxy)-pyridine fumaric acid] displayed a melting point of 172 to 173 °C.

`c1ccc(Oc2ncccc2OC[C@H]2CCCNC2)cc1` [Example 93, (S)-2-phenoxy-3-(piperidin-3-ylmethoxy)-pyridine fumaric acid]: the inhibition constant Ki is 5 nM in data set [1] and 7500 nM in data set [2].

Regarding `COc1cccc(F)c1Oc1nc(C)ccc1OC[C@H]1CCCNC1` [Example 21, (S)-2-(2-fluoro-6-methoxy-phenoxy)-6-methyl-3-(piperidin-3-ylmethoxy)-pyridine fumaric acid], the Ki stood at 4.9 nM in data set [1] and 72 nM in data set [2].

Take `Cc1ccc(OC[C@H]2CCCNC2)c(Oc2cccc(Cl)c2)n1` [Example 15, (S)-2-(3-chloro-phenoxy)-6-methyl-3-(piperidin-3-ylmethoxy)-pyridine fumaric acid]: the Ki in data set [1] was 9.8 nM; in data set [2], 287 nM.

`CC[C@H](Oc1cccnc1Oc1ccc(F)cc1)[C@H]1CCCNC1` [Example 85, (S,S)-2-(4-fluoro-phenoxy)-3-(1-piperidin-3-yl-propoxy)-pyridine fumaric acid]: the Ki in data set [1] is 5 nM; in data set [2], 2030 nM.

On to `Clc1ccc(Oc2ncccc2OC[C@H]2CCCNC2)cc1Cl` [Example 64, (S)-2-(3,4-dichloro-phenoxy)-3-(piperidin-3-ylmethoxy)-pyridine fumaric acid], for which the values for the inhibitory constant (Ki) in data set [1] and in data set [2] were 17 nM and 860 nM, respectively.

`COc1cc(Cl)ccc1Oc1cc(F)ccc1OC[C@H]1CCCNC1` [Example 36, (S)-3-[2-(4-chloro-2-methoxy-phenoxy)-4-fluoro-phenoxymethyl]-piperidine fumaric acid]: the inhibition constant Ki in data set [1] was 830 nM; in data set [2], 110 nM.

(Values after patent publication US20100120858A1, “Piperidine Derivatives” (Pfizer Inc., priority 2006, published 2010).)
